Where two headings read alike, the source gives them in different places.
What was measured:
[1] = tested on: middle cerebral artery occlusion and reperfusion model; experiment: Cerebral infarction model: middle cerebral artery occlusion and reperfusion (infarct area, neurological symptoms, motor function); type: in vivo, rats (Crj: Wistar strain); parameters: Improvement of neurological symptoms* (total score): scale not given here; details: rats, average of 10 animals; for Improvement of neurological symptoms* (total score) / Improvement of motor function (time stayed on rotor rod: seconds): single i.v. dose 3 mg/kg; for Improvement of neurological symptoms* (total score): 24 hours after occlusion, total score per Table 4, smaller = greater effect; for Improvement of motor function (time stayed on rotor rod: seconds): rotor rod 14 rotations per minute, maximum 1 minute; for Cerebral infarction reduction rate (%): single intravenous dose 3 mg/kg immediately before reperfusion, vs physiological saline group, bigger = greater effect
Method: In this example, a cerebral infarction model was prepared using rats in which reperfusion injury was induced by ischemia and then reperfusion of the middle cerebral artery using the obturator method. The efficacy of compounds of the present invention following single-dose intravenous administration at dose of 3 mg/kg was evaluated in terms of infarct area, neurological symptoms and motor function.
In addition, Edaravone (trade name, Mitsubishi Pharma Corporation) was used as a reference compound. The compounds of the present invention were stored in a refrigerator under protection from light, while Edaravone (trade name) was stored at room temperature under protection from light.
Compounds of present invention: 2 mL of physiological saline was added directly to tube containing 3 mg aliquots of a compound of the present invention to dissolve and prepare solutions having a concentration of 3 mg/2 mL. These samples were prepared at the time of use.
Edaravone: Since Edaravone is an injectable solution having a concentration of 30 mg/20 mL, the required amounts were divided up and used.
Rats: Crj: Wistar strain, males, age 7 weeks (Charles River Laboratories Japan, Inc.)
The test compounds were administered in a single dose into the tail vein using a 1 mL syringe and 27 G injection needle immediately before the reperfusion.
The rats were anesthetized by intraperitoneal administration of sodium pentobarbital at dose of 40 mg/kg (Nembutal (trade name), Dainippon Pharmaceutical Co., Ltd.), and a middle cerebral artery occlusion and reperfusion model was prepared in accordance with the method of Koizumi et al. (Non-Patent Document 2). Namely, the animals were warmed to 37° C. and held in the dorsal position while breathing spontaneously. A midline cervical incision was made, and then the right external carotid artery and right internal carotid artery were separated without damaging the vagus nerve. The right common carotid artery and right external carotid artery were ligated, and a suture was attached to the origin of the internal carotid artery in preparation for ligation and maintenance of occlusion following insertion of an obturator into the internal carotid artery. Moreover, a small incision was made in the right common carotid artery, an obturator provided with an approximately 17 mm silicon-coated suture was inserted into the internal carotid artery, and the internal carotid artery was ligated. Two hours after ligation, the obturator was removed under unanesthesia to reperfuse. Furthermore, flexion of the contralateral forelimb was confirmed 30 minutes after occlusion of the middle cerebral artery.
The following neurological symptoms were evaluated 24 hours after occlusion of the middle cerebral artery according to the evaluation method of Petullo et al. (Non-Patent Document 3). Neurological symptoms consisted of flexion of the forelimbs, torso twisting, resistance when pushing on the back of the right or left shoulder (Lateral push), circling, return of the hindlimb to the floor when lifted from the floor (Hindlimb placement), behavior when the head is faced downward on an angle (Inverted angle board) and a locomotor activity test.
Flexion of the forelimbs: flexion of the forelimbs was observed when the animals were lifted up by the tail.
Torso twisting: Torso twisting was observed when the animals were lifted up by the tail.
Lateral push: Resistance was observed when pushing on the back of the right or left shoulder.
Hindlimb placement: The animals were observed as to whether or not the hindlimb immediately returns to the floor after being lifted from the floor when placed on a horizontal floor.
locomotor activity: locomotor activity was observed when the animals were placed in a polycarbonate cage.
The aforementioned tests were scored based on the criteria described in the following documents, followed by calculation of total scores (see Table 4 “Neurological Symptom Evaluation Criteria and Scores”). […]

[2] = tested on: ouabain-induced arrhythmia model; experiment: Ouabain-induced arrhythmia model in guinea pigs; type: in vivo, guinea pigs (Hartley strain); details: dose 3 mg/kg i.v. immediately before ouabain infusion 3 μg/0.1 ml/min
Text: After guinea pigs (Hartley strain, age 6 weeks) were anesthetized with urethane, induction electrodes were attached to the hind limbs and fore limbs, and standard 2-lead electrocardiograms were monitored with an animal electrocardiogram analysis system (ECG-01, Japan Energy). After confirming that the waveforms of the electrocardiogram and heart rate were within the normal range, an incision was made in the epidermis of the neck followed by inserting a breathing tube into the trachea and cannulating a polyethylene tube into the left external jugular vein and left common carotid artery.
Immediately after administering a compound of the present invention dissolved in a physiological saline solution into the right external jugular vein, ouabain was continuously infused at 3 μg/0.1 ml/min through the cannulated polyethylene tube into the left external jugular vein using a syringe pump (Atom Syringe Pump 1235 (trade name), Atom Medical Corporation).
In addition, the polyethylene tube cannulated in the left common carotid artery was connected to a pressure transducer (P23XL, Gould Electronics), and fed to a pressure processor signal conditioner (TA-11, Gould Electronics) to record blood pressure and heart rate on a thermal plate recorder.
The results were assessed by comparing the dose (μg/kg) of ouabain administered until the appearance of arrhythmia and occurrence of cardiac arrest (arrhythmia is not induced even if a large dose of ouabain is administered if antiarrhythmic effects are high). Furthermore, a solvent dose group (administered only physiological saline in an amount equal to that of the test drug groups), and a positive control group administered a typical antiarrhythmic disopyramide phosphate (physiological saline solution), were also provided.

[3] = tested on: model of myocardial ischemia reperfusion injury; experiment: Model of myocardial ischemia-reperfusion injury in dogs; type: in vivo; details: 3 mg/kg into the femoral vein 10 minutes before 20 minutes coronary occlusion, then reperfusion
Method: In order to confirm the efficacy of compounds of the present invention on myocardial infarction and arrhythmia caused by myocardial infarction, a pharmacological study was conducted using a model of myocardial ischemia reperfusion injury in dogs for the compounds used in Example 1.
Dogs having body weights of approximately 10 kg were anesthetized with pentobarbital (trade name) (30 mg/ml/kg) followed by shaving the surgical site after starting artificial respiration. The femoral vein and femoral artery were separated followed by cannulation. The femoral vein was used as the administration route for the test substances, while the femoral artery was used to measure blood pressure.
Next, after opening the left chest, making an incision in the pericardium and exposing the left ventricle, the left coronary artery was separated. A silk suture was passed through the coronary artery to occlude, followed by the attachment of an electromagnetic flow meter probe for measuring blood flow.
In addition, a pair of ultrasound crystal probes was fixed in position to measure changes in ventricular wall length as a indicator of myocardial contractile force, and indwelling needle was installed for measuring left intraventricular pressure. Compounds of the present invention were administered into the femoral vein at 3 mg/kg (15% physiological saline solution) followed 10 minutes later by occluding the coronary artery for 20 minutes, and subsequently reperfusing the coronary artery. Myocardial contraction following ischemia-reperfusion was compared for each group based on a value of 100 for myocardial contraction prior to ischemic reperfusion. In addition, comparisons were also made with a solvent control group administered only physiological saline.

[4] = tested on: model of myocardial ischemia-reperfusion injury; experiment: Model of myocardial ischemia-reperfusion injury in rats; type: in vivo; details: 3 mg/kg i.v. 5 minutes before 5 minutes coronary ligation, 8 rats per group; for Incidence of Ventricular Fibrillation (%) / Incidence of Ventricular Tachycardia (%): monitored 5 minutes after reperfusion; for Mortality Rate (%): then reperfusion
guinea pigs [5] = experiment: Study of arrhythmia-inducing action in guinea pigs (without ouabain); details: no ouabain
guinea pigs [6] = details: guinea pig, in vivo
[7] = dose 3 mg/kg, up to 1 hour after administration
[8] = dose 10 mg/kg, up to 1 hour after administration
[9] = dose 3.9 mg/kg, up to 1 hour after administration

C[N+](C)(C)CCOc1ccc(C(=O)[O-])cc1 [Compound 3, 4-(2-trimethylammonio-ethoxy)-benzoate]
Improvement of neurological symptoms* (total score) [1]: 6.20
Improvement of motor function (time stayed on rotor rod: seconds) [1]: 50.1 s
Cerebral infarction reduction rate (%) [1]: 48.7%
Ouabain (μg/kg) administered until Cardiac arrest [2]: 235 µg/kg
Ouabain (μg/kg) administered until appearance of Arrhythmia [2]: 169 µg/kg
Myocardial Contraction (%) (Based on a value of 100% for prior to ischemia-reperfusion) [3]: 81%
Incidence of Ventricular Fibrillation (%) [4]: 12.5%
Incidence of Ventricular Tachycardia (%) [4]: 62.5%
Mortality Rate (%) [4]: 0%
Occurrence of Arrhythmia (guinea pigs [5]; [7]): No
Occurrence of cardiac arrest (guinea pigs [5]; [7]): No
Occurrence of Arrhythmia (guinea pigs [5]; [8]): No
Occurrence of cardiac arrest (guinea pigs [5]; [8]): No

C[N+](C)(C)CCOc1cc(C(=O)[O-])cc(O)c1O [Compound 31]
Improvement of neurological symptoms* (total score) [1]: 5.25
Improvement of motor function (time stayed on rotor rod: seconds) [1]: 60.0 s
Cerebral infarction reduction rate (%) [1]: 65.3%
Ouabain (μg/kg) administered until Cardiac arrest [2]: 259 µg/kg
Ouabain (μg/kg) administered until appearance of Arrhythmia [2]: 179 µg/kg
Myocardial Contraction (%) (Based on a value of 100% for prior to ischemia-reperfusion) [3]: 89%
Incidence of Ventricular Fibrillation (%) [4]: 0%
Incidence of Ventricular Tachycardia (%) [4]: 37.5%
Mortality Rate (%) [4]: 0%
Occurrence of Arrhythmia (guinea pigs [6]; 3 mg/kg): No
Occurrence of cardiac arrest (guinea pigs [6]; 3 mg/kg): No
Occurrence of Arrhythmia (guinea pigs [6]; 10 mg/kg): No
Occurrence of cardiac arrest (guinea pigs [6]; 10 mg/kg): No

C[N+](C)(C)CCOc1cc(C(=O)[O-])c(O)cc1O [Compound 30]
Improvement of neurological symptoms* (total score) [1]: 6.50
Improvement of motor function (time stayed on rotor rod: seconds) [1]: 51.4 s
Cerebral infarction reduction rate (%) [1]: 42.9%
Ouabain (μg/kg) administered until Cardiac arrest [2]: 247 µg/kg
Ouabain (μg/kg) administered until appearance of Arrhythmia [2]: 173 µg/kg
Myocardial Contraction (%) (Based on a value of 100% for prior to ischemia-reperfusion) [3]: 77%
Incidence of Ventricular Fibrillation (%) [4]: 12.5%
Incidence of Ventricular Tachycardia (%) [4]: 62.5%
Mortality Rate (%) [4]: 12.5%
Occurrence of Arrhythmia (guinea pigs [6]; 3 mg/kg): No
Occurrence of cardiac arrest (guinea pigs [6]; 3 mg/kg): No
Occurrence of Arrhythmia (guinea pigs [6]; 10 mg/kg): No
Occurrence of cardiac arrest (guinea pigs [6]; 10 mg/kg): No

CC(C)N(CCC(C(N)=O)(c1ccccc1)c1ccccn1)C(C)C (stereo not drawn) [Disopyramide phosphate, disopyramide phosphate, reference compound]
Ouabain (μg/kg) administered until Cardiac arrest [2]: 247 µg/kg
Ouabain (μg/kg) administered until appearance of Arrhythmia [2]: 175 µg/kg
Occurrence of Arrhythmia (guinea pigs [5]; [9]): No
Occurrence of cardiac arrest (guinea pigs [5]; [9]): No
Occurrence of cardiac arrest (guinea pigs [5]; dose 12.9 mg/kg (10 mg/kg as disopyramide)): Yes
Occurrence of cardiac arrest (guinea pigs [5]; dose 12.9 mg/kg (10 mg/kg as disopyramide), listed as disopyramide phosphate): cardiac arrest occurred immediately after administration

C[N+](C)(C)CC(O)Oc1ccc(O)c(C(=O)[O-])c1 (stereo not drawn) [Compound 56]
Improvement of neurological symptoms* (total score) [1]: 6.55
Improvement of motor function (time stayed on rotor rod: seconds) [1]: 45.4 s
Cerebral infarction reduction rate (%) [1]: 40.7%
Ouabain (μg/kg) administered until Cardiac arrest [2]: 244 µg/kg
Ouabain (μg/kg) administered until appearance of Arrhythmia [2]: 172 µg/kg
Myocardial Contraction (%) (Based on a value of 100% for prior to ischemia-reperfusion) [3]: 71%
Incidence of Ventricular Fibrillation (%) [4]: 12.5%
Incidence of Ventricular Tachycardia (%) [4]: 62.5%
Mortality Rate (%) [4]: 25.0%
Occurrence of Arrhythmia (guinea pigs [6]; 3 mg/kg): No
Occurrence of cardiac arrest (guinea pigs [6]; 3 mg/kg): No
Occurrence of Arrhythmia (guinea pigs [6]; 10 mg/kg): No
Occurrence of cardiac arrest (guinea pigs [6]; 10 mg/kg): No

C[N+](C)(C)CCOc1cc(O)cc(C(=O)[O-])c1O [Compound 28]
Improvement of neurological symptoms* (total score) [1]: 5.85
Improvement of motor function (time stayed on rotor rod: seconds) [1]: 53.1 s
Cerebral infarction reduction rate (%) [1]: 54.7%
Ouabain (μg/kg) administered until Cardiac arrest [2]: 267 µg/kg
Ouabain (μg/kg) administered until appearance of Arrhythmia [2]: 173 µg/kg
Myocardial Contraction (%) (Based on a value of 100% for prior to ischemia-reperfusion) [3]: 76%
Incidence of Ventricular Fibrillation (%) [4]: 12.5%
Incidence of Ventricular Tachycardia (%) [4]: 62.5%
Mortality Rate (%) [4]: 12.5%
Occurrence of Arrhythmia (guinea pigs [6]; 3 mg/kg): No
Occurrence of cardiac arrest (guinea pigs [6]; 3 mg/kg): No
Occurrence of Arrhythmia (guinea pigs [6]; 10 mg/kg): No
Occurrence of cardiac arrest (guinea pigs [6]; 10 mg/kg): No

C[N+](C)(C)CCOc1ccc(S(=O)(=O)[O-])cc1 [Compound 60]
Improvement of neurological symptoms* (total score) [1]: 6.65
Improvement of motor function (time stayed on rotor rod: seconds) [1]: 44.2 s
Cerebral infarction reduction rate (%) [1]: 39.0%
Ouabain (μg/kg) administered until Cardiac arrest [2]: 243 µg/kg
Ouabain (μg/kg) administered until appearance of Arrhythmia [2]: 170 µg/kg
Myocardial Contraction (%) (Based on a value of 100% for prior to ischemia-reperfusion) [3]: 88%
Incidence of Ventricular Fibrillation (%) [4]: 25.0%
Incidence of Ventricular Tachycardia (%) [4]: 62.5%
Mortality Rate (%) [4]: 0%
Occurrence of Arrhythmia (guinea pigs [6]; 3 mg/kg): No
Occurrence of cardiac arrest (guinea pigs [6]; 3 mg/kg): No
Occurrence of Arrhythmia (guinea pigs [6]; 10 mg/kg): No
Occurrence of cardiac arrest (guinea pigs [6]; 10 mg/kg): No

Reference: patent US7687546B2, “Quaternary ammonium compound, process for producing the same, therapeutic agent for cerebrovascular disorder, and therapeutic agent for heart disease” (Activus Pharma Co., Ltd., priority 2004, dated 2010)
